According to US12178815B2, “Regimens for treating HIV infections and aids” (priority 2017, dated 2024):
Values after ≈ are worked out from the molar mass of the structure shown. Where two headings read alike, the source gives them in different places.

Legend:
[1] = system: virus with reverse transcriptase mutations K103N, E138G, and K238T and integrase mutation Q148R; assay: Phenotypic resistance of virus from subject with protocol-defined virologic failure; parameters: species or system HIV-1; conditions: eight-week group subject, RT K103N
wild-type HIV-1 = assay: in vitro protein-adjusted 90% inhibitory concentration (PA-IC90); type: cell-based; conditions: against wild-type HIV-1
[2] = LATTE-2 plasma pharmacokinetics (trough concentrations); type: in vivo, human; conditions: for C0 relative to in vitro PA-IC90 / C0 at 48 week: Week 48; for C0 at 48 week: human, plasma, im
Description: Pharmacokinetic plasma concentrations following long-acting cabotegravir+rilpivirine administration are summarized using evaluable data that met sample collection window criteria, excluding samples affected by dosing errors (wrong dose) or oral bridging. Sampling windows for intramuscular dosing were set relative to the previous injection as follows: ±0.5 hours for two-hour postdose samples; ±one day for one-week postinjection visits; ±two days for predose samples in the four-week group, Weeks 4 and 8 cabotegravir samples in the eight-week group, and midcycle concentrations four weeks postinjection in the eight-week group; and ±four days for predose samples in the eight-week group (except for Weeks 4 and 8 cabotegravir samples, as described earlier).

[3] = system: virus with mixture at integrase codon 269 (R269R/G); assay: Susceptibility of virus from subject with protocol-defined virologic failure (integrase R269R/G); parameters: species or system HIV-1; conditions: eight-week group subject

Cc1nnc(C(=O)NC(C)(C)c2nc(C(=O)NCc3ccc(F)cc3)c(O)c(=O)n2C)o1 [raltegravir]
Phenotypic resistance/sensitivity of subject's virus [1]: phenotypic resistance

COc1cc2c(cc1Cc1cccc(Cl)c1F)c(=O)c(C(=O)O)cn2[C@H](CO)C(C)C [elvitegravir]
Phenotypic resistance/sensitivity of subject's virus [1]: phenotypic resistance

C[C@@H]1CCO[C@H]2Cn3cc(C(=O)NCc4ccc(F)cc4F)c(=O)c(O)c3C(=O)N12 [dolutegravir]
Phenotypic resistance/sensitivity of subject's virus [1]: sensitive

Cc1cc(/C=C/C#N)cc(C)c1Nc1ccnc(Nc2ccc(C#N)cc2)n1 [rilpivirine]
Phenotypic resistance/sensitivity of subject's virus [1]: phenotypic resistance
IC90 (wild-type HIV-1; Human immunodeficiency virus 1, read-out: in vitro PA-IC90): 0.012 µg/mL (≈ 0.0327 µM)
C0 relative to in vitro PA-IC90 ([2]; eight-week IM LA): 5 fold
C0 relative to in vitro PA-IC90 ([2]; four-week IM LA): 8 fold
C0 at 48 week ([2]; four-week IM LA, read-out: geometric mean C0): 94.6 ng/mL
Accumulation on repeated IM dosing ([2]; through 48 weeks of dosing, both IM arms): Accumulation of rilpivirine was observed

Cc1ccnc2c1NC(=O)c1cccnc1N2C1CC1 [nevirapine]
Phenotypic resistance/sensitivity of subject's virus [1]: phenotypic resistance

O=C1Nc2ccc(Cl)cc2[C@@](C#CC2CC2)(C(F)(F)F)O1 [efavirenz]
Phenotypic resistance/sensitivity of subject's virus [1]: phenotypic resistance

C[C@H]1CO[C@@H]2Cn3cc(C(=O)NCc4ccc(F)cc4F)c(=O)c(O)c3C(=O)N12 [cabotegravir, (3S,11aR)—N-[(2,4-difluorophenyl)methyl]-2,3,5,7,11,11a-hexahydro-6-hydroxy-3-methyl-5,7-dioxo-oxazolo[3,2-a]pyrido[1,2-d] pyrazine-8-carboxamide]
Phenotypic resistance/sensitivity of subject's virus [1]: phenotypic resistance
IC90 (wild-type HIV-1; Human immunodeficiency virus 1, read-out: in vitro protein-adjusted 90% inhibitory concentration (PA-IC90)): 0.166 µg/mL (≈ 0.41 µM)
Effect of emergent integrase R269R/G mixture on susceptibility [3]: did not decrease
C0 relative to in vitro PA-IC90 ([2]; eight-week IM LA): 9 fold
C0 relative to in vitro PA-IC90 ([2]; four-week IM LA): 16 fold
C0 relative to in vitro PA-IC90 ([2]; oral 30 mg once daily): 27 fold
C0 at 48 week ([2]; eight-week IM LA, read-out: geometric mean trough concentration (C0)): 1460 ng/mL
C0 at 48 week ([2]; four-week IM LA, read-out: geometric mean trough concentration (C0)): 2580 ng/mL
